Laboratory results published in patent publication US5969017A, “Methods of treating or preventing cardiac arrhythmia” (Merck & Co., Inc., priority 1997, dated 1999).
“Also recorded” adds a separate entry of the source. Read-outs that look alike come from different tables or passages of the source.

Molecular target: T1, hKv1.5 expressed in Chinese Hamster Ovary (CHO) cells (Homo sapiens, UniProt P22460)
T1 construct: expressed in transfected cells; host or cells: CHO-K1 cells (CHOKI in source), pcDNAI/Neo plasmid, G418-selected clones
Test: Voltage clamp measurement of hKv1.5 block (rested state, use-dependent, rate-dependent) in CHO cells
Type: cell-based
Conditions: for Use-Dpdnt Ratio: 10th vs 1st pulse @ 1 Hz, <1 = use-dependent; for selective blockade of hKv1.5 (in words): relative to other cardiac K+ channels; for use-dependent ratio for block of hKv1.5 (bound) / rate-dependent ratio for block of hKv1.5 (bound): summary of Table 1; for Rate-Dpdnt Ratio: 3 Hz vs 1 Hz, last pulse, <1 = rate-dependent
Protocol: A. Measurement of Kv1.5 in CHO cells
Expression of Kv1.5 in CHO Cells
A cDNA encoding Kv1.5, isolated from a human fetal heart library, was subcloned into pcDNAI/Neo (Invitrogen) as a Hind III--Xba I fragment.
CHOKI cells were plated at 2.7×10^4 cells/60 mm dish and incubated at 37° C., in a 5% CO2 environment for three days. Cells were then washed twice and covered with 3 ml of OptiMEM medium (Gibco). Plasmid/DOTAP solution (consisting of […] of Kv1.5 in pcDNAI/Neo and […] DOTAP transfection reagent (Boehringer Mannheim) in 1 ml of OptiMEM) was added dropwise to each plate while swirling. Plates were incubated overnight and the media then changed to 5 mls of F12 (Gibco) supplemented with 10% FBS (Sigma), 1,000 U/ml penicillin […] streptomycin (Gibco), and 2 mM glutamine (Gibco). After two more days, the cells were trypsinized and replated on 100 mm dishes in supplemented F12 media including 1 mg/ml G418 (Gibco). The medium was changed daily until nontransfected cells were killed. Cell lines were grown from individual clones and tested for expression of Kv1.5 using both the ^86 RB efflux assay and voltage clamp protocols. […] These cells were maintained in culture and on each experimental day were freshly isolated by mild trypsinization.
The patch-clamp technique was used to record ionic currents in the whole-cell configuration. Patch pipettes were obtained using a two stage puller from square bore (1.0 mm o.d.) borosillicate capillary tubing. Pipettes were filled with the following solution (in mM/L): 110 K-Gluconate or K-Aspartate, 20 KCl, 5 MgATP, 5 EGTA, 5-10 HEPES, pH 7.2. The electrodes had tip resistances ranging from 3 to 10 Mohm when filled with this solution. Following seal formation, the membrane was ruptured by gentle suction to establish the whole-cell configuration, and negative pressure was maintained on the pipette using a 1 ml gas-tight syringe attached via air tight tubing to the suction port of the microelectrode holder. […] Currents were sampled at 5 kHz using an Axopatch 200 A amplifier (Axon Instruments) or a List EPC-7 clamp amplifier (List Electronic) and were low pass filtered at 1 kHz.
Measurements of Kv1.5 Expressed Currents:
Kv1.5 currents were elicited by 150 ms depolarizing test pulses to +40 mV from a holding potential of -80 mV. The effects of test agents were assessed at steady-state. Data was analyzed as % block from control current amplitude. The amplitude of Kv1.5 was measured as the amplitude of the time-dependent net outward current at the end of the test pulse, relative to the holding current level. […] All experiments were performed at room temperature (22-24° C.).
C. Measurement of Use-Dependent and Rate-Dependent Block.
Pulses were applied in 10 second long trains delivered after 30 second rest intervals at frequencies of 1 Hz (10 pulses) or 3 Hz (30 pulses). Percent block of the current is defined as the % decrease in the current amplitude produced by an agent during a given pulse relative to the control current amplitude for that pulse. Rested-state block is the block of the current during the first pulse in a train following the 30 sec rest period. Use-dependent block is block that occurs to a progessively greater extent with each successive depolarization in a train or sequence of pulses or depolarizations delivered at a given rate or frequency. Thus, during a train of 10 depolarizations at frequency of 1 Hz, use-dependent block is assessed as the ratio of the amount of block for the 10th pulse relative to block for the 1st pulse (rested state block) of the train. Rate-dependent block is block that occurs to a greater extent or preferentially at faster rates of depolarization or heart rates. Thus, rate-dependent block is assessed as the ratio of the amount of block of the current during the last pulse of the 10 sec train at 3 Hz vs. 1 Hz.

[1] = 30 nM, 1st pulse @ 1 Hz, +40 mV from -80 mV, read-out: Average % Block, Rested State, 1st pulse
[2] = 30 nM, 10th pulse @ 1 Hz, read-out: Average % Block, Use-Dpdnt, 10th pulse
[3] = 30 nM, 30th pulse @ 3 Hz, read-out: Average % Block, Rate-Dpdnt, 30th pulse
[4] = 100 nM, 1st pulse @ 1 Hz, read-out: Average % Block, Rested State, 1st pulse
[5] = 100 nM, 10th pulse @ 1 Hz, read-out: Average % Block, Use-Dpdnt, 10th pulse
[6] = 100 nM, 30th pulse @ 3 Hz, read-out: Average % Block, Rate-Dpdnt, 30th pulse
[7] = 300 nM, 1st pulse @ 1 Hz, read-out: Average % Block, Rested State, 1st pulse
[8] = 300 nM, 10th pulse @ 1 Hz, read-out: Average % Block, Use-Dpdnt, 10th pulse

T1 sequence (P22460 whole entry): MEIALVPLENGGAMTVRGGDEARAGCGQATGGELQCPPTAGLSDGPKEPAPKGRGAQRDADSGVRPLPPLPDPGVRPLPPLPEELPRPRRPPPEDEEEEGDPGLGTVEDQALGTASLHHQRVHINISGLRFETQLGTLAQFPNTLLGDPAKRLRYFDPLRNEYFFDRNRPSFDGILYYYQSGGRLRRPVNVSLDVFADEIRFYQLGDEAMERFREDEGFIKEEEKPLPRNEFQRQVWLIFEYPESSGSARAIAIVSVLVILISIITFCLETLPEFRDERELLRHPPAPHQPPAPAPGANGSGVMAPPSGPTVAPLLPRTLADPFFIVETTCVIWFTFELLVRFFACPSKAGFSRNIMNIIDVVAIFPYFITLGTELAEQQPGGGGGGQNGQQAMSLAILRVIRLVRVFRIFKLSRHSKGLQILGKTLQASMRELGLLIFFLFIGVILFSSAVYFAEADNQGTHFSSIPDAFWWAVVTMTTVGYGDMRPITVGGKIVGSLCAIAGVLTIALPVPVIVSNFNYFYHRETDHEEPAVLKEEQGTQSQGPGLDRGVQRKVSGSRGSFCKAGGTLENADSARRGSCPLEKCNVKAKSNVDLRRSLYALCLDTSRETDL

Row | rate-dependent block of hKv1.5 (in words) | use-dependent block of hKv1.5 (in words) | inhibition at 0.03 µM [1] | inhibition at 0.03 µM [2] | inhibition at 0.03 µM [3] | inhibition at 0.1 µM [4] | inhibition at 0.1 µM [5] | inhibition at 0.1 µM [6] | Use-Dpdnt Ratio (100 nM) | inhibition at 0.3 µM [7] | inhibition at 0.3 µM [8] | Use-Dpdnt Ratio (300 nM) | selective blockade of hKv1.5 (in words) | use-dependent ratio for block of hKv1.5 (bound) | Rate-Dpdnt Ratio (100 nM) | rate-dependent ratio for block of hKv1.5 (bound) | Compound | further results
1 |  | use-dependentblockade |  |  |  | 31.1% | 34% |  | 0.91 | 52% | 62.5% | 0.83 | selective blockade | < 1 |  |  | COc1ccc(-n2nc(Sc3ccc(C)cc3)c(C)c(C#N)c2=O)cc1 [D] | 
2 | rate-dependent blockers | use-dependentblockade |  |  |  | 23.3% | 29.6% | 44.9% | 0.79 | 43.5% | 56.6% | 0.77 | selective blockade | < 1 | 0.66 | < 1 | Cc1cc(C)c(CP(=O)(c2ccccc2)c2ccccc2)c(-c2ccc(F)c(C)c2)c1 [B, 2-(Diphenylphosphinylmethyl)-4'-fluoro-3,5,3'-trimethyl-biphenyl] | Rate-Dpdnt Ratio (300 nM): 0.84; inhibition at 0.3 µM (300 nM, 30th pulse @ 3 Hz, read-out: Average % Block, Rate-Dpdnt, 30th pulse): 67.5%
3 | rate-dependent blockers | use-dependentblockade | 6.6% | 15.7% | 38% | 51% | 75.5% | 91.1% | 0.68 |  |  |  | selective blockade | < 1 | 0.83 | < 1 | COc1ccc(-n2nc(Sc3ccc(Cl)cc3)c(C)c(C#N)c2=O)cc1 [C, 6-(4-Chlorophenylthio)-2-(4-methoxyphenyl)-5-methyl-3-oxo-2,3-dihydropyridazine-4-carbonitrile] | Rate-Dpdnt Ratio (30 nM): 0.41; Use-Dpdnt Ratio (30 nM): 0.42

Row | Compound | rate-dependent block of hKv1.5 (in words) | use-dependent block of hKv1.5 (in words) | inhibition at 0.03 µM [1] | inhibition at 0.03 µM [2] | inhibition at 0.03 µM [3] | inhibition at 0.1 µM [4] | inhibition at 0.1 µM [5] | inhibition at 0.1 µM [6] | Use-Dpdnt Ratio (100 nM) | inhibition at 0.3 µM [7] | inhibition at 0.3 µM [8] | Use-Dpdnt Ratio (300 nM) | selective blockade of hKv1.5 (in words) | use-dependent ratio for block of hKv1.5 (bound) | Rate-Dpdnt Ratio (100 nM) | rate-dependent ratio for block of hKv1.5 (bound) | further results
4 | CC1CCC(C(C)C)C(P(=O)(c2ccccc2)c2ccccc2)C1 (stereo not drawn) [A, (2-Isopropyl-5-methylcyclohexyl)diphenylphosphine oxide] | rate-dependent blockers; also recorded: strong rate-dependent profile | use-dependentblockade | 21.2% | 38.5% | 57.5% | 32.1% | 64.6% | 82.9% |  |  |  |  |  |  |  |  | use-dependent block of hKv1.5 (in words) (listed as (2-isopropyl-5-methylcyclohexyl) diphenyl-phosphine oxide): strong use-dependent profile
